Data from patent EP0189853A2, “1,6-Naphthyridin-2(1H)-ones having cardiotonic activity and preparation” (STERLING DRUG INC., priority 1985, dated 1986).

Key:
papillary muscle = experiment: isolated guinea pig atria and papillary muscle procedure: papillary muscle force; format: cell-based; settings: Cavia porcellus, papillary muscle force, read-out: % Change from Control PMF
From the text: (§1) Detailed descriptions of these test procedures appear in U.S. Patent No. 4,072,746, issued February 7, […].
(§2) Cardiotonic activity in said isolated cat or guinea pig atria and papillary muscle procedure, is indicated by a significant increase, that is, greater than 25% (cat) or 30% (g.pig) in papillary muscle force and a significant increase, that is, greater than 25% (cat) or 30% (g.pig) in right atrial force, with a lower percentage increase (about one-half or less than the percentage increase in right atrial force or papillary muscle force) in right atrial rate. Because of the lower control active tensions of guinea pig tissues, the percent change from control values of both rate and force responses is elevated slightly, i.e., 5%. Thus, whereas cardiotonic activity is ascertained with a papillary muscle force or right atrial force increase of 26% and greater in the cat test, corresponding activity in the guinea pig test is designated with a papillary muscle force (PMr) or right atrial force (RAF) increase of 31% or greater. Representative examples of the compounds of Formulas I and II were tested by said guinea pig atria and papillary muscle procedure with the following results: […]

guinea pig atria = experiment: isolated guinea pig atria and papillary muscle procedure: right atrial force; format: cell-based; settings: Cavia porcellus, read-out: % Change from Control RAF
From the text: as §1, §2

anesthetized dog = anesthetized dog procedure: cardiac contractile force; format: in vivo; settings: administered intravenously
Procedure: as §1
When tested by said anesthetized dog procedure, the said cardiotonically active compounds of formulas I and II at doses of from about 0.030 to 3.0 mg/kg administered intravenously are found to cause significant increases, that is, 25% or greater, in cardiac contractile force or cardiac contractility with lower changes in heart rate and blood pressure. Representative examples of the invention were tested by this procedure and found to cause increases in contractile force as follows: […]

Work on O=c1ccc2c(Br)nccc2[nH]1 [Example 4, 5-bromo-1,6-naphthyridin-2(1H)-one] yielded an activation at 3 µg/mL (papillary muscle) of 73%, an activation at 10 µg/mL (papillary muscle) of 85% and an activation at 30 µg/mL (papillary muscle) of 110%. It also gave an activation at 3 µg/mL (guinea pig atria) of 57%, an activation at 10 µg/mL (guinea pig atria) of 49% and an activation at 30 µg/mL (guinea pig atria) of 134%. The “% Increase In Contractile Force” value (anesthetized dog; dose 0.100 mg/kg) was 135%.

Work on O=c1ccc2c(-n3ccnc3)nccc2[nH]1 [Example 6, 5-(lH-imidazol-1-yl)-1,6-naphthyridin-2(lH)-one] yielded an activation at 3 µg/mL (papillary muscle) of 55%, an activation at 10 µg/mL (papillary muscle) of 90% and an activation at 30 µg/mL (papillary muscle) of 96%. For the same compound, the activation at 3 µg/mL (guinea pig atria) was 70%, the activation at 10 µg/mL (guinea pig atria) was 68% and the activation at 30 µg/mL (guinea pig atria) was 142%.

Work on Cc1cn(-c2nccc3[nH]c(=O)ccc23)cn1 [Example 7, 5-(4-Methyl-1H-imidazol-1-yl)-1,6-naphthyridin-2(1H)-one] yielded an activation at 0.3 µg/mL (papillary muscle; dose 0.3 µg/ml) of 53%, an activation at 1 µg/mL (papillary muscle) of 66% and an activation at 3 µg/mL (papillary muscle) of 87%. The activation at 0.3 µg/mL (guinea pig atria; dose 0.3 µg/ml) was 28%, the activation at 1 µg/mL (guinea pig atria) was 49% and the activation at 3 µg/mL (guinea pig atria) was 88%. The “% Increase In Contractile Force” value (anesthetized dog; dose 0.030 mg/kg) was 34%, the “% Increase In Contractile Force” value (anesthetized dog; dose 0.100 mg/kg) was 96% and the “% Increase In Contractile Force” value (anesthetized dog; dose 0.300 mg/kg) was 124%.

For Cc1nccn1-c1nccc2[nH]c(=O)ccc12 [Example 8, 5-(2-Methyl-1H-imidazol-1-yl)-1,6-naphthyridin-2(lH)-one], the activation at 10 µg/mL (papillary muscle) was 34%, the activation at 30 µg/mL (papillary muscle) was 69% and the activation at 100 µg/mL (papillary muscle) was 100%. The activation at 10 µg/mL (guinea pig atria) was 39%, the activation at 30 µg/mL (guinea pig atria) was 117% and the activation at 100 µg/mL (guinea pig atria) was 221%.

With Cc1ncc([N+](=O)[O-])n1-c1nccc2[nH]c(=O)ccc12 [Example 9, 5-(2-methyl-5-nitro-1H-imidazol-1-yl)-1,6-naphthyridin-2(1H)-one] the activation at 10 µg/mL (papillary muscle) was 24%, the activation at 30 µg/mL (papillary muscle) was 43% and the activation at 100 µg/mL (papillary muscle) was 103%. It also gave an activation at 10 µg/mL (guinea pig atria) of 15%, an activation at 30 µg/mL (guinea pig atria) of 16% and an activation at 100 µg/mL (guinea pig atria) of 116%.

Work on O=c1ccc2c(-n3cccn3)nccc2[nH]1 [Example 10, 5-(1H-pyrazol-1-yl)-1,6-naphthyridin-2(1H)-one] yielded an activation at 10 µg/mL (papillary muscle) of 43%, an activation at 30 µg/mL (papillary muscle) of 121% and an activation at 100 µg/mL (papillary muscle) of 203%. For the same compound, the activation at 10 µg/mL (guinea pig atria) was 38%, the activation at 30 µg/mL (guinea pig atria) was 102% and the activation at 100 µg/mL (guinea pig atria) was 168%.

O=c1ccc2c(-n3cncn3)nccc2[nH]1 [Example 11, 5-(lH-1,2,4-triazol-1-yl)-1,6-naphthyridin-2(1H)-one] was tested, and the activation at 3 µg/mL (papillary muscle) was 51%, the activation at 10 µg/mL (papillary muscle) was 76% and the activation at 30 µg/mL (papillary muscle) was 108%. It also gave an activation at 3 µg/mL (guinea pig atria) of 28%, an activation at 10 µg/mL (guinea pig atria) of 31% and an activation at 30 µg/mL (guinea pig atria) of 140%.

Cc1ncn(-c2nccc3[nH]c(=O)ccc23)c1C [Example 12, 5-(4,5-dimethyl-1H-imidazol-1-yl)-1,6-naphthyridin-2(1H)-one] showed an activation at 3 µg/mL (papillary muscle) of 13%, an activation at 10 µg/mL (papillary muscle) of 49% and an activation at 30 µg/mL (papillary muscle) of 92%. The activation at 3 µg/mL (guinea pig atria) was 7%, the activation at 10 µg/mL (guinea pig atria) was 14% and the activation at 30 µg/mL (guinea pig atria) was 50%. For the same compound, the “% Increase In Contractile Force” value (anesthetized dog; dose 1.00 mg/kg) was 54% and the “% Increase In Contractile Force” value (anesthetized dog; dose 3.00 mg/kg) was 136%.

Work on O=c1ccc2c(-n3cnc(-c4ccccc4)c3)nccc2[nH]1 [Example 13, 5-(4-phenyl-lH-imidazol-1-yl)-1,6-naphthyridin-2(1H)-one] yielded an activation at 10 µg/mL (papillary muscle) of 25%, an activation at 30 µg/mL (papillary muscle) of 34% and an activation at 100 µg/mL (papillary muscle) of 36%. It also gave an activation at 10 µg/mL (guinea pig atria) of 33%, an activation at 30 µg/mL (guinea pig atria) of 24% and an activation at 100 µg/mL (guinea pig atria) of 1%. For the same compound, the “% Increase In Contractile Force” value (anesthetized dog; dose 1.00 mg/kg) was 40% and the “% Increase In Contractile Force” value (anesthetized dog; dose 3.00 mg/kg) was 87%.

For Cc1ccn(-c2nccc3[nH]c(=O)ccc23)n1 [Example 40, 5-(3-Methyl-1H-pyrazol-1-yl)-1,6-naphthyridin-2(lH)-one], the activation at 3 µg/mL (papillary muscle) was 24%, the activation at 10 µg/mL (papillary muscle) was 64% and the activation at 30 µg/mL (papillary muscle) was 97%. The activation at 3 µg/mL (guinea pig atria) was 26%, the activation at 10 µg/mL (guinea pig atria) was 89% and the activation at 30 µg/mL (guinea pig atria) was 84%.

Cc1ncn(-c2nccc3[nH]c(=O)ccc23)n1 [Example 41, 5-(3-methyl-lH-1,2,4-triazole-1-yl)-1,6-naphthyridin-2(1H)-one] showed an activation at 1 µg/mL (papillary muscle) of 36%, an activation at 3 µg/mL (papillary muscle) of 56% and an activation at 10 µg/mL (papillary muscle) of 124%. It also gave an activation at 1 µg/mL (guinea pig atria) of 29%, an activation at 3 µg/mL (guinea pig atria) of 37% and an activation at 10 µg/mL (guinea pig atria) of 67%.

For O=c1ccc2c(-n3cnc(CO)c3)nccc2[nH]1 [Example 42, 5-[4-(Hydroxymethyl)-1H-imidazol-1-yl]-1,6-naphthyridin-2(lH)-one], the activation at 1 µg/mL (papillary muscle) was 9%, the activation at 3 µg/mL (papillary muscle) was 48% and the activation at 10 µg/mL (papillary muscle) was 112%. The activation at 1 µg/mL (guinea pig atria) was -2%, the activation at 3 µg/mL (guinea pig atria) was 8% and the activation at 10 µg/mL (guinea pig atria) was 37%.

Work on O=c1ccc2c(-n3cnc(Br)c3)nccc2[nH]1 [Example 43, 5-(4-Bromo-1H-imidazol-1-yl)-1,6-naphthyridin-2(lH)-one] yielded an activation at 1 µg/mL (papillary muscle) of 47%, an activation at 3 µg/mL (papillary muscle) of 71% and an activation at 10 µg/mL (papillary muscle) of 128%. For the same compound, the activation at 1 µg/mL (guinea pig atria) was 35%, the activation at 3 µg/mL (guinea pig atria) was 43% and the activation at 10 µg/mL (guinea pig atria) was 56%.

O=c1ccc2c(-n3cnc(C(F)(F)F)c3)nccc2[nH]1 [Example 44, 5-[(4-(Trifluoromethyl)-lH-imidazol-1-yl)]-1,6-naphthyridin-2(lH)-one] gave an activation at 10 µg/mL (papillary muscle) of 30%, an activation at 30 µg/mL (papillary muscle) of 31% and an activation at 100 µg/mL (papillary muscle) of 69%. The activation at 10 µg/mL (guinea pig atria) was 35%, the activation at 30 µg/mL (guinea pig atria) was 36% and the activation at 100 µg/mL (guinea pig atria) was 101%.

With Cc1cc2[nH]c(=O)ccc2c(Br)n1 [Example 46, 5-Bromo-7-methyl-1,6-naphthyridin-2(1H)-one] the activation at 1 µg/mL (papillary muscle) was 44%, the activation at 3 µg/mL (papillary muscle) was 67% and the activation at 10 µg/mL (papillary muscle) was 114%. The activation at 1 µg/mL (guinea pig atria) was 41%, the activation at 3 µg/mL (guinea pig atria) was 92% and the activation at 10 µg/mL (guinea pig atria) was 59%.

Cc1cn(-c2nc(C)cc3[nH]c(=O)ccc23)cn1 [Example 47, 7-Methyl-5-(4-methyl-1H-imidazol-1-yl)-1,6-naphthyridin-2(lH)-one] showed an activation at 1 µg/mL (papillary muscle) of 46%, an activation at 3 µg/mL (papillary muscle) of 48% and an activation at 10 µg/mL (papillary muscle) of 164%. For the same compound, the activation at 1 µg/mL (guinea pig atria) was 37%, the activation at 3 µg/mL (guinea pig atria) was 46% and the activation at 10 µg/mL (guinea pig atria) was 158%. The “% Increase In Contractile Force” value (anesthetized dog; dose 0.100 mg/kg) was 71%, the “% Increase In Contractile Force” value (anesthetized dog; dose 0.300 mg/kg) was 125% and the “% Increase In Contractile Force” value (anesthetized dog; dose 1.00 mg/kg) was 183%.

With O=c1ccc2c(-n3cnc([N+](=O)[O-])c3)nccc2[nH]1 [Example 48, 5-(4-nitro-1H-imidazol-1-yl)-1,6-naphthyridin-2(1H)-one] the activation at 10 µg/mL (papillary muscle) was 37%, the activation at 30 µg/mL (papillary muscle) was 71% and the activation at 100 µg/mL (papillary muscle) was 107%. It also gave an activation at 10 µg/mL (guinea pig atria) of 18%, an activation at 30 µg/mL (guinea pig atria) of 42% and an activation at 100 µg/mL (guinea pig atria) of 170%.
